According to patent publication US8227510B2, “Combine use of pterostilbene and quercetin for the production of cancer treatment medicaments” (Universitat de Valencia, priority 2004, dated 2012):
Marks after values point to notes of the source that are not given here.

Assay: Plasma levels after oral administration in mice
Format: in vivo
Conditions: 20 mg/kg oral
Text: The mice (C57BL/6J, male, 6-8 weeks) were from Charles River Spain (Barcelona). The procedures and animal care were based on institutional standards and complied with national and international laws and policies (Directive 86/609, OJ L 358. 1 of the Council of the European Community, of 12 Dec. 1987) and the “Guide for the Care and Use of Laboratory Animals” of the National Institutes of Health (NIH, USA) (NIH Publication No. 85-23, 1985). All the animals were fed according to concentrated laboratory diets (Letica, Barcelona, Spain) allowing them free access to food and submitting them to a cycle of 12 hours of light/12 hours of darkness with ambient temperature of 22° C. The experiments were begun at 10.00 a.m. to minimize the effects of diurnal variations.
For the pharmacokinetic studies and for the daily treatment, the mice were administered i.v. (via the jugular vein, where a permanent catheter had previously been fixed by surgical methods; i.v. administration was carried out slowly for 1 minute), and orally (via stomach tube), 20 mg/kg of t-PTER (dissolved in ethanol 0.5 ml/kg of animal weight) or QUER (dissolved in dimethylsulfoxide:saline, 1:0.5 0.15 ml/kg of weight). In general, the compositions based on a combination of PTER and QUER can contain, as excipients, those stated previously or any others that are pharmaceutically acceptable. The presentation of said compositions can be, non-limitatively, in the form of solids such as tablets, capsules, pellets, pills, etc. and liquid presentations such as drops, syrups, injectables, etc. Moreover, the active principles (PTER and QUER) of the composition can be in their uncombined forms or in the form of pharmaceutically acceptable salts, including esters. The t-PTER was synthesized in our laboratory following standardized reactions of Wittig and Heck (www.orgsyn.org), whereas the QUER was obtained from Sigma Chemical Co. (San Luis, Mo., USA). The ^3H-t-PTER (2.2 Ci/mmol), labeled in the ortho and para positions of the benzene rings, was prepared in our laboratory according to a method similar to that used for the deuteration of phenols (18). ^14C-QUER (50 mCi/mmol), labeled in position 4 of the carbon ring, was obtained from the NCI Radiochemical Carcinogen Repository of Chemsyn Laboratories (Kansas City, Mo., USA). The radioactivity was measured using a Varisette 2700 TR analyzer from Packard. Blood was collected by means of the catheter in 1-ml syringes that contained heparin sodium (0.05 ml of a 5% solution in […]). The plasma and the erythrocytes were separated as described previously (19).
LC-MS/MS was carried out using a Quattro Micro triple quadrupole mass spectrometer (Micromass, Manchester, UK) equipped with an LC-10Advp pump, an SLC-10Avp control system and an SIL-10Advp autoinjector from Shimadzu. The samples were analyzed by reverse-phase high-performance liquid chromatography using a Prodigy ODS column (100×2 mm) from Phenomenex (Torrance, Calif., USA), with a particle size of 3 μm. In all cases, 40 μl was injected into the column. Column temperature was maintained at 25° C. The following gradient system was used, pumped through the column at 0.2 ml/minute (min/% A/% B/% C) (A, methanol; B, 10% acetonitrile and 90% ammonium formate 10 mM pH 3.75; C, ammonium formate 10 mM pH 3.75): 0/5/5/90, 10/5/5/90, 20/5/90/5, 30/100/0/0, 40/5/5/90. The negative ion tandem mass spectra obtained by electrospray were recorded with the electrospray capillary fixed at […] and at a temperature of the source block of 120° C. Nitrogen was used as nebulizer gas and drying gas, with flows of 300 and 30 l/h, respectively. Argon at 1.5×10^−3 mbar was used as the collision gas for collision-induced dissociation. A test was carried out based on LC-MS/MS with tracking of multiple reactions using the transitions m/z 255-240 for PTER and […] for QUER, which in both cases represent favorable fragmentation routes for these deprotonated molecules. […]

Structure (SMILES) | time of peak of plasma levels [min] | Plasma level (total) (5 minutes) [nM] | Plasma level, % free (5 minutes) [% free] | Plasma level (total) (10 minutes) [nM] | Plasma level, % free (10 minutes) | Plasma level (total) (30 minutes) [nM] | Plasma level, % free (30 minutes) | Plasma level (total) (60 minutes) [nM] | Plasma level, % free (60 minutes) | Plasma level (total) (120 minutes) [nM] | Plasma level, % free (120 minutes) | Plasma level (total) (240 minutes) [nM] | Plasma level, % free (240 minutes) | Plasma level (total) (480 minutes) [nM] | Plasma level, % free (480 minutes) | Plasma level (total) (720 minutes) [nM] | Plasma level, % free (720 minutes) | other results
O=c1c(O)c(-c2ccc(O)c(O)c2)oc2cc(O)cc(O)c12 [QUER, quercetin] | 10 | 1600 ± 300 | 22 ± 6 | 2300 ± 700 | <0.5* % free | 600 ± 200 | <0.5* % free | 200 ± 100 | <0.5* % free | 70 ± 10 | <0.5* % free | 50 ± 20 | <0.5* % free | 50 ± 20 | <0.5* % free | 40 ± 10 | <0.5* % free | free QUER as percentage of the total (except for the first 5 minutes): 0.5%; levels of total QUER in plasma (first 10 minutes): > 1000 nM
COc1cc(/C=C/c2ccc(O)cc2)cc(OC)c1 [PTER, pterostilbene] | 60 | 2900 ± 600 | 67 ± 13 | 6600 ± 1800 | 50 ± 10 % free | 11100 ± 3000 | 35 ± 5 % free | 18200 ± 2700 | 17 ± 6 % free | 13300 ± 3400 | 15 ± 3 % free | 10600 ± 1200 | 16 ± 4 % free | 7100 ± 800 | 14 ± 4 % free | 1600 ± 500 | 12 ± 2 % free | free PTER as percentage of the total (between 30 and 240 minutes): 15-35%; total concentration of PTER in plasma (between 30 and 240 minutes): > 10 µM
